According to patent US20210053957A1, “HERBICIDAL COMPOUNDS” (SYNGENTA PARTICIPATIONS AG, priority 2018, published 2021):

Legend:
Test in all cases: Post-emergence efficacy, glasshouse spray test
Format in all cases: in vivo
[1] = tested on: Amaranthus palmeri (AMAPA); conditions: Application Rate 500 g/Ha, evaluated after 13 days; for pest or weed control at 500 g/ha: Amaranthus palmeri, post-emergence, 312 h, read-out: Control of weed species after post-emergence application, AMAPA (100=total damage to plant; 0=no damage to plant)
How it was run: (§1)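 Plants grown 14 days in glasshouse (24/16 °C day/night, 14 h light, 65% humidity), then sprayed post-emergence with compound formulated in acetone/IF50 emulsifier, diluted in 0.25% or 1% Empicol ESC70 plus 1% ammonium sulphate. Damage scored after 13 days, 0 (none) to 100 (total).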

[2] = tested on: Chenopodium album (CHEAL); conditions: Application Rate 500 g/Ha, evaluated after 13 days; for pest or weed control at 500 g/ha: Chenopodium album, post-emergence, 312 h, read-out: Control of weed species after post-emergence application, CHEAL (100=total damage to plant; 0=no damage to plant)
How it was run: as §1

[3] = tested on: Digitaria sanguinalis (DIGSA); conditions: Application Rate 500 g/Ha, evaluated after 13 days; for pest or weed control at 500 g/ha: Digitaria sanguinalis, post-emergence, 312 h, read-out: Control of weed species after post-emergence application, DIGSA (100=total damage to plant; 0=no damage to plant)
How it was run: as §1

[4] = tested on: Echinochloa crus-galli (ECHCG); conditions: Application Rate 500 g/Ha, evaluated after 13 days; for pest or weed control at 500 g/ha: Echinochloa crus-galli, post-emergence, 312 h, read-out: Control of weed species after post-emergence application, ECHCG (100=total damage to plant; 0=no damage to plant)
How it was run: as §1

Eleusine indica (ELEIN) = conditions: Application Rate 500 g/Ha, evaluated after 13 days; for pest or weed control at 500 g/ha: Eleusine indica, post-emergence, 312 h, read-out: Control of weed species after post-emergence application, ELEIN (100=total damage to plant; 0=no damage to plant)
How it was run: as §1

[5] = tested on: Euphorbia heterophylla (EPHHL); conditions: Application Rate 500 g/Ha, evaluated after 13 days; for pest or weed control at 500 g/ha: Euphorbia heterophylla, post-emergence, 312 h, read-out: Control of weed species after post-emergence application, EPHHL (100=total damage to plant; 0=no damage to plant)
How it was run: as §1

[6] = tested on: Ipomoea hederacea (IPOHE); conditions: Application Rate 500 g/Ha, evaluated after 13 days; for pest or weed control at 500 g/ha: Ipomoea hederacea, post-emergence, 312 h, read-out: Control of weed species after post-emergence application, IPOHE (100=total damage to plant; 0=no damage to plant)
How it was run: as §1

Lolium perenne (LOLPE) = conditions: Application Rate 500 g/Ha, evaluated after 13 days; for pest or weed control at 500 g/ha: Lolium perenne, post-emergence, 312 h, read-out: Control of weed species after post-emergence application, LOLPE (100=total damage to plant; 0=no damage to plant)
How it was run: as §1

Setaia fabei (SETFA) = conditions: Application Rate 500 g/Ha, evaluated after 13 days; for pest or weed control at 500 g/ha: Setaria faberi, post-emergence, 312 h, read-out: Control of weed species after post-emergence application, SETFA (100=total damage to plant; 0=no damage to plant)
How it was run: as §1

Row | SMILES | Control of weed species after post-emergence application, AMAPA (100=total damage to plant; 0=no damage to plant) [1] | Control of weed species after post-emergence application, CHEAL (100=total damage to plant; 0=no damage to plant) [2] | Control of weed species after post-emergence application, DIGSA (100=total damage to plant; 0=no damage to plant) [3] | Control of weed species after post-emergence application, ECHCG (100=total damage to plant; 0=no damage to plant) [4] | Control of weed species after post-emergence application, ELEIN (100=total damage to plant; 0=no damage to plant) (Eleusine indica (ELEIN)) | Control of weed species after post-emergence application, EPHHL (100=total damage to plant; 0=no damage to plant) [5] | Control of weed species after post-emergence application, IPOHE (100=total damage to plant; 0=no damage to plant) [6] | Control of weed species after post-emergence application, LOLPE (100=total damage to plant; 0=no damage to plant) (Lolium perenne (LOLPE)) | Control of weed species after post-emergence application, SETFA (100=total damage to plant; 0=no damage to plant) (Setaia fabei (SETFA)) | pest or weed control at 500 g/ha [1] | pest or weed control at 500 g/ha [2] | pest or weed control at 500 g/ha [3] | pest or weed control at 500 g/ha [4] | pest or weed control at 500 g/ha (Eleusine indica (ELEIN)) | pest or weed control at 500 g/ha [5] | pest or weed control at 500 g/ha [6] | pest or weed control at 500 g/ha (Lolium perenne (LOLPE)) | pest or weed control at 500 g/ha (Setaia fabei (SETFA))
1 | CC(C)c1csc(-c2cc[n+](CCS(=O)(=O)O)nc2)n1 [Compound A23] | 50 | 10 | 50 | 30 | 60 | 70 | 30 | 40 | 40 | – | – | – | – | – | – | – | – | –
2 | Cn1nccc1-c1cc[n+](CCCS(=O)(=O)[O-])nc1 [Compound A4] | – | – | – | – | – | – | – | – | – | 10% | 30% | 30% | 20% | 10% | 40% | 10% | 0% | 20%
3 | O=S(=O)([O-])CC[n+]1ccc(-c2ncsn2)cn1 [Compound A143] | – | – | – | – | – | – | – | – | – | 100% | 90% | 100% | 100% | 100% | 100% | 60% | 100% | 90%
4 | CC(C[n+]1ccc(-c2ncco2)cn1)NS(=O)(=O)[O-] (stereo not drawn) [Compound A89] | – | – | – | – | – | – | – | – | – | 100% | 90% | 90% | 60% | 70% | 100% | 30% | 60% | 60%
5 | O=S(=O)([O-])CCC[n+]1ccc(-c2ccon2)cn1 [Compound A59] | – | – | – | – | – | – | – | – | – | 90% | 90% | 70% | 70% | 90% | 100% | 80% | 70% | 80%
6 | Cc1nnc(-c2cc[n+](CCC(=O)O)nc2)s1 [Compound A98] | – | – | – | – | – | – | – | – | – | 100% | 90% | 90% | 70% | 80% | 90% | 40% | 80% | 100%
7 | O=C(O)CC[n+]1ccc(-c2csnn2)cn1 [Compound A139, 3-[4-(thiadiazol-4-yl)pyridazin-1-ium-1-yl]propanoic acid 2,2,2-trifluoroacetate] | – | – | – | – | – | – | – | – | – | 80% | 70% | 70% | 60% | 70% | 100% | 60% | 10% | 60%
8 | Cc1coc(-c2cc[n+](CCCC(=O)O)nc2)n1 [Compound A135] | – | – | – | – | – | – | – | – | – | 90% | 20% | 90% | 90% | 80% | 90% | 10% | 40% | 90%
